Data from patent US6737383B1, “Herbicidal oxadiazolidines” (priority 1999, dated 2004).

Columns and labels:
[1] = system: smallflower flatsedge; test: Test B flood test smallflower flatsedge; assay type: in vivo, Cyperus difformis; settings: for Plant response rating, S. Flatsedge (0 to 10 scale, 0 is no effect, 10 is complete control): Pre-emergence; for Plant response rating, S. Flatsedge (0 to 10 scale, 0 is no effect, 10 is complete control) / S. Flatsedge plant response rating (0 to 10 scale, 0 is no effect, 10 is complete control): visual evaluation after twelve to sixteen days; for S. Flatsedge plant response rating (0 to 10 scale, 0 is no effect, 10 is complete control): under heading Pre-emergence
How it was run: (§1)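 Flood test on plants grown to the 2-leaf stage; treated plants kept in greenhouse twelve to sixteen days, then visually rated against controls on a 0 (no effect) to 10 (complete control) scale.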

[2] = system: rape; test: Test B pre/postemergence rape; assay type: in vivo, Brassica napus
How it was run: (§2)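 Herbicidal effect was estimated by eye on a ten-point control scale after plants spent twelve to sixteen days in a greenhouse following soil or foliar treatment. Foliar sprays targeted plants at one to four leaves; all doses were formulated in a non-phytotoxic solvent with surfactant.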

[3] = system: bamyardgrass; test: Test B flood test barnyardgrass; assay type: in vivo, Echinochloa crus-galli; settings: for Plant response rating, Barnyardgrass (0 to 10 scale, 0 is no effect, 10 is complete control): Pre-emergence; for Plant response rating, Barnyardgrass (0 to 10 scale, 0 is no effect, 10 is complete control) / Barnyardgrass plant response rating (0 to 10 scale, 0 is no effect, 10 is complete control): visual evaluation after twelve to sixteen days; for Barnyardgrass plant response rating (0 to 10 scale, 0 is no effect, 10 is complete control): under heading Pre-emergence
How it was run: as §1

[4] = system: morningglory; test: Test B pre/postemergence morningglory; assay type: in vivo, Ipomoea hederacea
How it was run: as §2

[5] = Postemergence (flood test species), Rate 125 g/ha, scale of 0 to 10 where 0 is no effect and 10 is complete control
[6] = Rate 62 g/ha, Postemergence section, flood test species, scale of 0 to 10 where 0 is no effect and 10 is complete control
[7] = Rate 250 g/ha, Postemergence (flood test), scale 0 to 10, 0 is no effect, 10 is complete control
[8] = Postemergence, Rate 125 g/ha, scale of 0 to 10 where 0 is no effect and 10 is complete control
[9] = Preemergence, Rate 62 g/ha, scale 0 to 10 (0 no effect, 10 complete control)
[10] = Preemergence, Rate 125 g/ha, 0 is no effect, 10 is complete control
[11] = Preemergence, Rate 250 g/ha, scale 0 to 10, 0 is no effect, 10 is complete control
[12] = Preemergence, Rate 500 g/ha, scale 0 to 10 (0 no effect, 10 complete control)
[13] = Rate 62 g/ha, Postemergence, scale of 0 to 10 where 0 is no effect and 10 is complete control
[14] = Rate 250 g/ha, Postemergence, scale 0 to 10, 0 is no effect, 10 is complete control
[15] = Rate 500 g/ha, Postemergence, scale 0 to 10
[16] = Rate 62 g/ha, flood test species
[17] = Rate 125 g/ha, flood test species
[18] = Rate 250 g/ha, Pre-emergence (flood test species), scale 0 to 10, 0 is no effect, 10 is complete control
[19] = Rate 500 g/ha, Pre-emergence section of Table B, 0 to 10 scale (0 no effect, 10 complete control)
[20] = Postemergence, Rate 62 g/ha, scale 0 to 10, 0 is no effect, 10 is complete control
[21] = Preemergence, Rate 62 g/ha, scale of 0 to 10 where 0 is no effect and 10 is complete control
[22] = Preemergence, Rate 125 g/ha, scale of 0 to 10 where 0 is no effect and 10 is complete control
[23] = Preemergence, Rate 500 g/ha, scale of 0 to 10 where 0 is no effect and 10 is complete control
[24] = Rate 500 g/ha, Postemergence, scale 0 to 10, 0 is no effect, 10 is complete control
[25] = Postemergence, Rate 62 g/ha, scale of 0 to 10, 0 is no effect, 10 is complete control
[26] = Postemergence, Rate 125 g/ha, scale 0 to 10, 0 is no effect, 10 is complete control
[27] = Postemergence, Rate 500 g/ha, scale of 0 to 10 where 0 is no effect and 10 is complete control
[28] = Preemergence, Rate 125 g/ha, scale 0 to 10, 0 is no effect, 10 is complete control
[29] = Rate 250 g/ha, Postemergence, scale of 0 to 10 where 0 is no effect and 10 is complete control
[30] = Postemergence block (flood test species), Rate 250 g/ha, scale 0 to 10
[31] = Postemergence section (flood test species), Rate 500 g/ha, scale of 0 to 10 where 0 is no effect and 10 is complete control
[32] = Rate 125 g/ha, Postemergence section (flood test species), scale 0 to 10, 0 is no effect, 10 is complete control
[33] = Postemergence, Rate 250 g/ha, scale 0 to 10
[34] = Preemergence, Rate 500 g/ha, scale 0 to 10, 0 is no effect, 10 is complete control
[35] = Rate 125 g/ha, Postemergence, scale 0 to 10, 0 is no effect, 10 is complete control

COc1ccccc1Cn1c(=O)on(C(=O)N(c2ccc(F)cc2)C(C)C)c1=O [Compound 143]
S. Flatsedge plant response rating [1, 5]: 0
S. Flatsedge plant response rating [1, 6]: 0
Plant response rating, S. Flatsedge [1, 7]: 2
S. Flatsedge plant response rating ([1]; Rate 500 g/ha, listed under Postemergence (flood test species), scale 0 to 10): 8
Rape plant response rating [2, 8]: 0
Rape plant response rating [2, 9]: 0
Rape plant response rating (0 to 10 scale) [2, 10]: 3
Rape plant response rating [2, 11]: 4
Rape plant response rating [2, 12]: 6
Rape plant response rating [2, 13]: 0
Plant response rating, Rape [2, 14]: 0
Rape plant response rating [2, 15]: 3
Barnyardgrass plant response rating [3, 5]: 8
Barnyardgrass plant response rating [3, 6]: 0
Plant response rating, Barnyardgrass [3, 7]: 8
Barnyardgrass plant response rating ([3]; Rate 500 g/ha, listed under Postemergence (flood test species), scale 0 to 10, 0 no effect, 10 complete control): 10
Morningglory plant response rating [4, 8]: 6
Morningglory plant response rating [4, 9]: 0
Morningglory plant response rating (0 to 10 scale) [4, 10]: 0
Morningglory plant response rating [4, 11]: 0
Morningglory plant response rating [4, 12]: 0
Morningglory plant response rating [4, 13]: 3
Plant response rating, Morningglory [4, 14]: 8
Morningglory plant response rating [4, 15]: 8

CC(C)N(C(=O)n1oc(=O)n(CCCC#N)c1=O)c1ccc(F)cc1F [Compound 675]
Plant response rating, S. Flatsedge (0 to 10 scale, 0 is no effect, 10 is complete control) [1, 16]: 0
S. Flatsedge plant response rating (0 to 10 scale, 0 is no effect, 10 is complete control) [1, 17]: 0
S. Flatsedge plant response rating [1, 18]: 0
S. Flatsedge plant response rating [1, 19]: 0
Plant response rating, Rape [2, 20]: 0
Rape plant response rating [2, 8]: 0
Rape plant response rating [2, 21]: 2
Plant response rating, Rape [2, 22]: 3
Plant response rating, Rape [2, 23]: 10
Rape plant response rating [2, 24]: 3
Plant response rating, Barnyardgrass (0 to 10 scale, 0 is no effect, 10 is complete control) [3, 16]: 0
Barnyardgrass plant response rating (0 to 10 scale, 0 is no effect, 10 is complete control) [3, 17]: 0
Barnyardgrass plant response rating [3, 18]: 0
Barnyardgrass plant response rating [3, 19]: 0
Plant response rating, Morningglory [4, 20]: 1
Morningglory plant response rating [4, 8]: 2
Morningglory plant response rating ([4]; Postemergence, Rate 250 g/ha, scale of 0 to 10, 0 is no effect, 10 is complete control): 2
Morningglory plant response rating [4, 21]: 0
Plant response rating, Morningglory [4, 22]: 0
Plant response rating, Morningglory [4, 23]: 6
Morningglory plant response rating [4, 24]: 4

CCCCCCn1c(=O)on(C(=O)N(c2ccccc2)C(C)C)c1=O [Compound 558]
Plant response rating, S. Flatsedge (0 to 10 scale, 0 is no effect, 10 is complete control) [1, 16]: 0
S. Flatsedge plant response rating (0 to 10 scale, 0 is no effect, 10 is complete control) [1, 17]: 0
S. Flatsedge plant response rating [1, 18]: 0
S. Flatsedge plant response rating [1, 19]: 0
Rape plant response rating [2, 25]: 0
Rape plant response rating [2, 26]: 0
Plant response rating, Rape [2, 27]: 2
Rape plant response rating [2, 9]: 0
Rape plant response rating [2, 28]: 0
Rape plant response rating (0 to 10 scale) ([2]; Preemergence, Rate 250 g/ha): 2
Rape plant response rating [2, 23]: 2
Plant response rating, Rape [2, 29]: 0
Plant response rating, Barnyardgrass (0 to 10 scale, 0 is no effect, 10 is complete control) [3, 16]: 0
Barnyardgrass plant response rating (0 to 10 scale, 0 is no effect, 10 is complete control) [3, 17]: 0
Barnyardgrass plant response rating [3, 18]: 2
Barnyardgrass plant response rating [3, 19]: 6
Morningglory plant response rating [4, 25]: 10
Morningglory plant response rating [4, 26]: 10
Plant response rating, Morningglory [4, 27]: 10
Morningglory plant response rating [4, 9]: 0
Morningglory plant response rating [4, 28]: 0
Morningglory plant response rating (0 to 10 scale) ([4]; Preemergence, Rate 250 g/ha): 0
Morningglory plant response rating [4, 23]: 0
Plant response rating, Morningglory [4, 29]: 10

CCN(C(=O)n1oc(=O)n(C2CCCCCC2)c1=O)C1CCCCC1 [Compound 429]
S. Flatsedge plant response rating [1, 30]: 3
S. Flatsedge plant response rating [1, 31]: 9
S. Flatsedge plant response rating [1, 32]: 0
Rape plant response rating [2, 33]: 0
Rape plant response rating [2, 27]: 0
Plant response rating, Rape [2, 9]: 0
Plant response rating, Rape [2, 22]: 0
Rape plant response rating [2, 11]: 0
Rape plant response rating [2, 34]: 0
Rape plant response rating [2, 35]: 0
Barnyardgrass plant response rating [3, 30]: 1
Barnyardgrass plant response rating [3, 31]: 7
Barnyardgrass plant response rating ([3]; Rate 62 g/ha, Postemergence (flood test species), scale of 0 to 10 where 0 is no effect and 10 is complete control): 0
Barnyardgrass plant response rating [3, 32]: 0
Morningglory plant response rating [4, 33]: 2
Morningglory plant response rating [4, 27]: 3
Plant response rating, Morningglory [4, 9]: 0
Plant response rating, Morningglory [4, 22]: 0
Morningglory plant response rating [4, 11]: 0
Morningglory plant response rating [4, 34]: 0
Morningglory plant response rating [4, 35]: 1
